# In PubChem BioAssay (NCI):
#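 Compound exposure: 48 hours, 5 concentrations, 96-well plates. Here, GI50 denotes the concentration required for 50% inhibition of growth. TGI marks complete inhibition of growth.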
# Key:
# Assay in all cases: NCI-60 cell line screen, 48 h
# [1] = tested on: U251 CNS
# [2] = tested on: A549 NSCLC
# [3] = tested on: MDA-MB-435
# [4] = tested on: SF-268 CNS
# [5] = tested on: OVCAR-3 ovarian
# [6] = tested on: HCT-15 colon
# [7] = tested on: UO-31 renal
# [8] = tested on: HCC-2998 colon
# [9] = tested on: OVCAR-5 ovarian
# [10] = tested on: M14 melanoma
# [11] = tested on: SNB-75 CNS
# [12] = tested on: OVCAR-4 ovarian
# [13] = tested on: SK-MEL-28 melanoma
# [14] = tested on: ACHN renal
# [15] = tested on: SK-MEL-5 melanoma
# [16] = tested on: A498 renal
# [17] = tested on: SN12C renal
# [18] = tested on: SK-MEL-2 melanoma
# [19] = tested on: COLO 205 colon
# [20] = tested on: EKVX NSCLC
# [21] = tested on: T-47D breast
# [22] = tested on: BT-549 breast
# [23] = tested on: UACC-62 melanoma
# [24] = tested on: HOP-92 NSCLC
# [25] = tested on: 786-0 renal
# [26] = tested on: CAKI-1 renal
# [27] = tested on: MCF7 breast
# [28] = tested on: HS 578T breast
# [29] = tested on: SW-620 colon
# [30] = tested on: TK-10 renal
# [31] = tested on: K-562 leukemia
# [32] = tested on: MOLT-4 leukemia
# [33] = tested on: SR leukemia
# [34] = tested on: SF-295 CNS
# [35] = tested on: DU-145 prostate
# [36] = tested on: CCRF-CEM leukemia
# [37] = tested on: NCI-H23 lung
# [38] = tested on: LOX IMVI melanoma
# [39] = tested on: IGROV1 ovarian
# [40] = tested on: RPMI-8226 leukemia
# [41] = tested on: MALME-3M melanoma
# [42] = tested on: PC-3 prostate
# [43] = tested on: HCT-116 colon
# [44] = tested on: UACC-257 melanoma
# [45] = tested on: NCI-H522 lung
# [46] = tested on: HOP-62 NSCLC
# [47] = tested on: HL-60(TB) leukemia
# [48] = tested on: KM12 colon
# [49] = tested on: MDA-MB-231 breast
# [50] = tested on: NCI/ADR-RES ovarian
# [51] = tested on: SNB-19 CNS
# [52] = tested on: SK-OV-3 ovarian
# [53] = tested on: HT29 colon
# [54] = tested on: RXF 393 renal
# [55] = tested on: SF-539 CNS
# [56] = tested on: NCI-H226 lung
# [57] = tested on: NCI-H460 lung
smiles,measurement,setting,value
COC(=O)c1c2c(c(C)[n+]([O-])c1C)C(=O)C=C(NCc1ccc(Br)cc1)C2=O,GI50,[1],0.778 µM
same,TGI,[1],2.46 µM
same,GI50,[2],0.705 µM
same,TGI,[2],2.74 µM
same,GI50,[3],0.095 µM
same,TGI,[3],0.243 µM
same,GI50,[4],1.22 µM
same,TGI,[4],3.35 µM
same,GI50,[5],0.252 µM
same,TGI,[5],0.845 µM
same,GI50,[6],0.167 µM
same,TGI,[6],1.95 µM
same,GI50,[7],1.08 µM
same,TGI,[7],2.44 µM
same,GI50,[8],0.491 µM
same,TGI,[8],1.9 µM
same,GI50,[9],1.33 µM
same,TGI,[9],2.83 µM
same,GI50,[10],0.0442 µM
same,TGI,[10],1.04 µM
same,GI50,[11],1.58 µM
same,TGI,[11],2.94 µM
same,GI50,[12],0.181 µM
same,TGI,[12],1.04 µM
same,GI50,[13],0.987 µM
same,TGI,[13],2.72 µM
same,GI50,[14],0.575 µM
same,TGI,[14],2.1 µM
same,GI50,[15],0.201 µM
same,TGI,[15],0.435 µM
same,GI50,[16],0.904 µM
same,TGI,[16],2.3 µM
same,GI50,[17],0.581 µM
same,TGI,[17],1.74 µM
same,GI50,[18],1.55 µM
same,TGI,[18],4.13 µM
same,GI50,[19],0.322 µM
same,TGI,[19],1.17 µM
same,GI50,[20],0.763 µM
same,TGI,[20],2.37 µM
same,GI50,[21],0.141 µM
same,TGI,[21],2.09 µM
same,GI50,[22],1.15 µM
same,TGI,[22],2.53 µM
same,GI50,[23],0.0438 µM
same,TGI,[23],1.09 µM
same,GI50,[24],1.74 µM
same,TGI,[24],3.6 µM
same,GI50,[25],0.637 µM
same,TGI,[25],2.23 µM
same,GI50,[26],0.0597 µM
same,TGI,[26],1.64 µM
same,GI50,[27],0.255 µM
same,TGI,[27],1.07 µM
same,GI50,[28],2.4 µM
same,TGI,[28],8.05 µM
same,GI50,[29],0.17 µM
same,TGI,[29],1.71 µM
same,GI50,[30],2.27 µM
same,TGI,[30],5.88 µM
same,GI50,[31],0.0472 µM
same,TGI,[31],> 100 µM
same,GI50,[32],0.87 µM
same,TGI,[32],3.99 µM
same,GI50,[33],1.7 µM
same,TGI,[33],> 100 µM
same,GI50,[34],0.242 µM
same,TGI,[34],1.32 µM
same,GI50,[35],0.871 µM
same,TGI,[35],2.26 µM
same,GI50,[36],0.669 µM
same,GI50,[37],0.721 µM
same,TGI,[37],3.32 µM
same,GI50,[38],0.07 µM
same,TGI,[38],1.62 µM
same,GI50,[39],0.473 µM
same,TGI,[39],2.14 µM
same,GI50,[40],1.47 µM
same,TGI,[40],5.1 µM
same,GI50,[41],0.154 µM
same,TGI,[41],0.389 µM
same,GI50,[42],0.428 µM
same,TGI,[42],3.37 µM
same,GI50,[43],0.173 µM
same,TGI,[43],0.667 µM
same,GI50,[44],0.229 µM
same,TGI,[44],0.907 µM
same,GI50,[45],1.23 µM
same,TGI,[45],4.11 µM
same,GI50,[46],1.05 µM
same,TGI,[46],2.47 µM
same,GI50,[47],0.309 µM
same,TGI,[47],1.5 µM
same,GI50,[48],0.171 µM
same,TGI,[48],1.81 µM
same,GI50,[49],0.3 µM
same,TGI,[49],3.82 µM
same,GI50,[50],0.332 µM
same,TGI,[50],3.31 µM
same,GI50,[51],1.23 µM
same,TGI,[51],2.48 µM
same,GI50,[52],1.52 µM
same,TGI,[52],3.41 µM
same,GI50,[53],0.339 µM
same,TGI,[53],> 100 µM
same,GI50,[54],1.09 µM
same,TGI,[54],2.54 µM
same,GI50,[55],0.72 µM
same,TGI,[55],2 µM
same,GI50,[56],1.3 µM
same,TGI,[56],2.98 µM
same,GI50,[57],0.431 µM
same,TGI,[57],1.99 µM
